Measured values: patent publication US8106062B1, “Calcium channel blockers” (Diakron Pharmaceuticals, Inc., priority 2003, dated 2012)
Each block holds one molecule with its values, some of them ahead of it.

Legend:
[1] = molecular target: T1, T-type calcium channels (α1G) (Homo sapiens, UniProt O43497); assay: Patch-clamp assay for T-channel blockage in HEK cells; format: cell-based; settings: time course of T-channel blockage, 500 nM and 1 uM, preliminary numbers
T1 construct: expressed in transfected cells
T1 sequence (O43497 whole entry): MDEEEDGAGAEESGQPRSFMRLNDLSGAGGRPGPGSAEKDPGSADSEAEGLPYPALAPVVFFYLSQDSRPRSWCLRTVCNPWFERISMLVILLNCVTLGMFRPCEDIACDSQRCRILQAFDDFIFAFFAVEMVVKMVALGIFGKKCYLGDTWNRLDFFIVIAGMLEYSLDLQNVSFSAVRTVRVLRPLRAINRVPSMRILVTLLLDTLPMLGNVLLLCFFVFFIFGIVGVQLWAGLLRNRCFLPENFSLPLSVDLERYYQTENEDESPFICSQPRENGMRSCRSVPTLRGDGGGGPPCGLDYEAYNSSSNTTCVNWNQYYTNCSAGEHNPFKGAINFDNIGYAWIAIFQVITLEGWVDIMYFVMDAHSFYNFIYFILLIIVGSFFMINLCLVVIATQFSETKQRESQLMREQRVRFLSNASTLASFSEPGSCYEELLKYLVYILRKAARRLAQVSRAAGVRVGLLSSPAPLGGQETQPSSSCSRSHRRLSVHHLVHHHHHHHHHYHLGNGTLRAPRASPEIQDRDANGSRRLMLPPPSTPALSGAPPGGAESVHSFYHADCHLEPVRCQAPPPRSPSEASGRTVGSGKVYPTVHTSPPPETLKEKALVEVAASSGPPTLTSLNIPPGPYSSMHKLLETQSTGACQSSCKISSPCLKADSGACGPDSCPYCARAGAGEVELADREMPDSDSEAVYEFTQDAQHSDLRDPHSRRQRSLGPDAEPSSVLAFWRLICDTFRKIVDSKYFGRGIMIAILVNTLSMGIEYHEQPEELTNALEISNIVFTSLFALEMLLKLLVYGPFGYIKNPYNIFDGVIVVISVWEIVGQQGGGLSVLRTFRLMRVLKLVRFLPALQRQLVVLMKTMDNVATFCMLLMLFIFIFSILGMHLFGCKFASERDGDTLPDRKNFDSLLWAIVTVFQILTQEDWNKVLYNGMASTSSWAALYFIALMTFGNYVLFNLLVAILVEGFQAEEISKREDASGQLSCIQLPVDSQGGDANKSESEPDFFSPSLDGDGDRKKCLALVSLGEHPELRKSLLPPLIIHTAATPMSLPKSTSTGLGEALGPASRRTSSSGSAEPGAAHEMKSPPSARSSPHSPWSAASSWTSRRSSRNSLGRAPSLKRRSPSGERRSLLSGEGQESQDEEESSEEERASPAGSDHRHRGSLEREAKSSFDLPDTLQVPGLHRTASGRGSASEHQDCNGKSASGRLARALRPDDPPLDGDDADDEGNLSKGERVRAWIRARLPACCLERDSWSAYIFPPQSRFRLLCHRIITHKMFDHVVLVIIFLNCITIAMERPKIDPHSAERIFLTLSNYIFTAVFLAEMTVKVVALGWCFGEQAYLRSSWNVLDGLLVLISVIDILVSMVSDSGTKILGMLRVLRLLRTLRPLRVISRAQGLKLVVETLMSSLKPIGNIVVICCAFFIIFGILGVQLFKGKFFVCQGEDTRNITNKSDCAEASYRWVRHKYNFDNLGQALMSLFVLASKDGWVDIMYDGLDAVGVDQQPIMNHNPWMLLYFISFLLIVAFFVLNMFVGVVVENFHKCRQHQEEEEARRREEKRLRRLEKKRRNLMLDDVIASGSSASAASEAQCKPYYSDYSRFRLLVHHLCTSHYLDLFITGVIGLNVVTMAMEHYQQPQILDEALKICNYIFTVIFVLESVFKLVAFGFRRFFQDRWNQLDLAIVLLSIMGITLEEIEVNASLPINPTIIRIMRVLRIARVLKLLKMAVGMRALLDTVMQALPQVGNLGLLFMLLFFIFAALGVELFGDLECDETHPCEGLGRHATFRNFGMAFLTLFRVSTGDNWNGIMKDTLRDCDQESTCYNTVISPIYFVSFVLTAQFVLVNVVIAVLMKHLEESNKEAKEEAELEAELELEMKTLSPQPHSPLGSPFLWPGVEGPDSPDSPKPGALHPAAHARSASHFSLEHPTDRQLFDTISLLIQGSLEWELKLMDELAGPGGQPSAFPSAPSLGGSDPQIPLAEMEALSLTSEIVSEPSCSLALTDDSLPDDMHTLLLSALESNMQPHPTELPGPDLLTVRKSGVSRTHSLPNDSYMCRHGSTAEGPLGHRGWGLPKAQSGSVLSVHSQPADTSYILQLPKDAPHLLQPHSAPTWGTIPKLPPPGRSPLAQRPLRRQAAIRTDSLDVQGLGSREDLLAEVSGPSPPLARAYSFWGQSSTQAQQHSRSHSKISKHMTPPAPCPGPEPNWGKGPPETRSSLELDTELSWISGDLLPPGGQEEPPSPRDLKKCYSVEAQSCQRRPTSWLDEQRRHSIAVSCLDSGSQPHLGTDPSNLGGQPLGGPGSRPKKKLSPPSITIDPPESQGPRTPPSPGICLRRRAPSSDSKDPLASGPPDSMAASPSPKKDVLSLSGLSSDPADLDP
Method: Specifically, individual HEK cells were tested in vitro using a patch-clamp assay for T-channel blockage. Tests were performed at concentrations of 500 nM and 1 uM, and the time course of the blockage was followed for a period of several minutes.
In the past, patch clamp assays for T-channel activity would measure inhibition of calcium-ion-mediated current over the course of only a few minutes, e.g., 2, 3, or 5 minutes. […] The assays described herein can be used to differentiate between conventional-type T-channel blockers, which usually show a time constant of blockage of a few seconds, and the long-acting T-channel blockers, which show time constants between 1 minute and 2, 4, 5, 10 or more minutes. It is the latter group of compounds that is particularly interesting and useful in the present invention.
T-type calcium channels (α1G) were stably expressed in HEK293 cells and maintained at 37° C. in DMEM. Cells were released from dishes using trypsin and EGTA or Accutase and studied within 4 hours of isolation. Individual cells were placed on the stage of an inverted microscope and patched with pipettes pulled from aluminasilicate glass capillary tubes, which had resistances of 0.8-1.5 Mohm. Currents were recorded using an Axopatch 200 (Axon Instruments, Inc.) and pClamp data acquisition software (8.1). The pipette solution contained (in mM): KCl 130, EGTA 11, HEPES 10, MgATP 5, pH=7.4. The bath solution contained (in mM): NaCl 140, CaCl2 1, HEPES 10, pH=7.4. Test compounds were diluted into bath solution to the desired concentration (100 nM-10 μM) from a stock solutions (3 or 10 mM in DMSO). Current measurements were made at 20-23° C. Cells were held at −110 mV in order to maximize occupancy in the closed state and depolarized for 100 ms to various potentials. Currents were capacity corrected using 16-64 subthreshold responses (voltage steps of 10 or 20 mV) and leak subtracted, based on linear interpolation between the current at the holding potential and 0 mV. Cells were moved from a control chamber to a chamber with test compound and the effect of the drug was assessed using a voltage clamp protocol that stepped to −30 mV for 100 ms from a holding potential of −110 mV once every 5 s. After each 10-13 minutes, the train protocol was interrupted and a full current voltage relationship obtained. In general for each compound, four cells were studied for a minimum of 13 minutes, two in drug at 500 nM and two at 1 μM. In some cases other concentrations were also studied. Data were analyzed using Matlab (Mathworks, Natick, Mass.). Drug efficacy was estimated using the relationship: Blocked Fraction=[Drug]/(IC50+[Drug])
The time course of block by drug was fit to a single exponential function: Peak Current=A*exp(−t/τ)+B where A is the initial amplitude of the current, B the final level, t the time after the cell was exposed to drug, and τ, the time constant, i.e. the time it took for the current to be reduced to within 1/e of its final value, B. In general, modification τs are influenced both by drug on rate and off rate, although washout was achievable for only one compound, so off rates are so slow (small) that T can be taken to essentially represent 1/kon. For some compounds despite the presence of the drug in the chamber, modification occurred with a delay. This was quantified from the time modification was first observed. […]

[2] = system: spontaneously hypertensive rats; settings: 30 mg/Kg oral, cited from earlier work
[3] = system: spontaneously hypertensive rats; assay: Systolic blood pressure (tail cuff) in spontaneously hypertensive rats after IV tail injection; format: in vivo, rat; settings: SHR
Method: In addition to the referenced in vitro studies, in vivo studies have also been conducted. The in vivo hypertension model used here involves administration of compound to spontaneously hypertensive rats through IV tail injection of compound. Systolic blood pressure is then measured using a tail cuff.
Fifteen male spontaneously hypertensive rats (SHR) were used in these studies. The animals were 12 weeks old at arrival and 15 weeks old at the start of study. The animals were divided into five groups, with three animals in each group. The starting, baseline systolic blood pressure for all animals included in the study was 190-220 mmHg. The animals were housed in contact bedding. They were fed Purina 5008. Six days after arrival, the animals were trained in the blood pressure apparatus for four days before the start of the study.
Compounds were administered to the animals by tail vein injection. Dose levels were 0.5 mL. In each study, one group of animals served as control, while the others were injected with a dosage of a compound.
The study was conducted using the schedule set forth below: […]

[4] = multiple dose study, three injections spaced about 25 hours apart, FIG. 2
[5] = single dose 20 mg/Kg, IV tail injection, FIG. 1

Molecule: CCCCCCCCCCCCCCCc1cccc(OC)c1C1NC(=O)NC(C)=C1C(=O)OCC (centres unmarked) [PPK22, 5-ethoxycarbonyl-4-(2-methoxy-6-pentadecylphenyl)-6-methyl-3,4-dihydropyrimidin-2(1H)-one]
Time constant [1]: 1 min

Molecule: 3,6-dihydro-4-methyl-6-[2-ethoxy-6-pentadecylphenyl]-2-oxo-1,5-(2H)-pyrimidinedicarboxylic acid 1-ethyl 5-isopropyl diester [PPK35]
Time constant [1]: 10 min

Molecule: COCC(=O)O[C@]1(CCN(C)CCCc2nc3ccccc3[nH]2)CCc2cc(F)ccc2[C@@H]1C(C)C [Mibefradil]
systolic blood pressure drop in the first 5 hours ([2]; FIG. 1): about 85 mmHg
systolic blood pressure recovery by the end of 24 hours ([2]; FIG. 1): about 45 mmHg
rapid drop of blood pressure ([2]; FIG. 2): 85 mmHg
recovery of blood pressure within 24 hours of administration ([2]; FIG. 2): more than 50%

Molecule: CCCCCCCCCCCCCCCc1cccc(OC(C)C)c1C1C(C(=O)OC)=C(C)NC(C)=C1C(=O)OC [PPK5, dimethyl 1,4-dihydro-4-(2′-isopropoxy-6′-pentadecylphenyl)-2,6-dimethyl-3,5-pyridine dicarboxylate]
Time constant [1]: 8 min
additional blood pressure drop after the second injection [3, 4]: ~12 mmHg
blood pressure drop after first injection [3, 4]: about 55 mmHg
time systolic pressure remained at the reduced level ([3]; single dose 20 mg/Kg, IV tail injection): > 24 h
systolic pressure drop in the first 5 hours [3, 5]: about 48 mmHg
systolic pressure drop in the first 10 hours [3, 5]: about 55 mmHg

Further lines, results first:

Time constant [1]: 13 min
Molecule: CCCCCCCCCCCCCCCc1cccc(OC(C)C)c1C1C(C(=O)OCC)=C(C)NC(=S)N1C(=O)CC (centres unmarked) [PPK51, 1,2,3,4-tetrahydro-6-methyl-4-[2-isopropoxy-6-pentadecylphenyl]-3-(1-oxo-propyl)2-thioxo-5-pyrimidine carboxylic acid ethyl ester]

Time constant [1]: 10 min
Molecule: CCCCCCCCCCCCCCCc1cccc(OCC)c1C1C(C(=O)OCC)=C(C)NC(=S)N1C(=O)CC (centres unmarked) [PPK50, 1,2,3,4-tetrahydro-6-methyl-4-[2-ethoxy-6-pentadecylphenyl]-3-(1-oxo-propyl)2-thioxo-5-pyrimidine carboxylic acid ethyl ester]
